# From PMC9005681, “Use of AD Informer Set compounds to explore validity of novel targets in Alzheimer's disease pathology” (Alzheimer's & Dementia : Translational Research & Clinical …, 2022)
# Values joined by “and” are separate entries in the source; they are usually repeats but may differ in a detail not shown here. Equal values may be shown once.
# What was measured:
# Assay in all cases: PDSP GPCR panel primary binding assays at 10 μM
# [1] = biological target: T1, cloned human or rodent CNS receptors, channels, and transporters (PDSP panel) (Homo sapiens, UniProt P11229); conditions: M1, primary assay
# T1 construct: expressed in transfected cells
# T1 sequence (P11229 1-460): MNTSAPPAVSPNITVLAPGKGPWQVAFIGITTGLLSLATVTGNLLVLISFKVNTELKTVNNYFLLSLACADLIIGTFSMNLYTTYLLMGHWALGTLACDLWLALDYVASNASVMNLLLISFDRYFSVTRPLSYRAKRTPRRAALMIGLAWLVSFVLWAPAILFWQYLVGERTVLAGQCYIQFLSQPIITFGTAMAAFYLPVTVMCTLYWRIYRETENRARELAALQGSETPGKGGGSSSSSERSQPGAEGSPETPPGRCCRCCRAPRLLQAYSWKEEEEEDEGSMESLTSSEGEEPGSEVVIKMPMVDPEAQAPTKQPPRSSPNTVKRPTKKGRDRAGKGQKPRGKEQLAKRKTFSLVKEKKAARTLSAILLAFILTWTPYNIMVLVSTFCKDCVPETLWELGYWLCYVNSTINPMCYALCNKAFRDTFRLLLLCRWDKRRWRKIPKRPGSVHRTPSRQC
# Method in brief: (§1)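 Radioligand displacement at cloned human or rodent CNS targets: 46–47 primary binding assays run in quadruplicate at 10 μM. Targets where the compound displaced an average of >50% of radiolabeled standard ligand went to secondary binding in 11-point dose-response, in triplicate; none run for H3, PBR or GABAA.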
# [2] = biological target: T2, cloned human or rodent CNS receptors, channels, and transporters (PDSP panel) (Homo sapiens, UniProt P21917); conditions: D4, primary assay
# T2 construct: expressed in transfected cells
# T2 sequence (P21917 1-419): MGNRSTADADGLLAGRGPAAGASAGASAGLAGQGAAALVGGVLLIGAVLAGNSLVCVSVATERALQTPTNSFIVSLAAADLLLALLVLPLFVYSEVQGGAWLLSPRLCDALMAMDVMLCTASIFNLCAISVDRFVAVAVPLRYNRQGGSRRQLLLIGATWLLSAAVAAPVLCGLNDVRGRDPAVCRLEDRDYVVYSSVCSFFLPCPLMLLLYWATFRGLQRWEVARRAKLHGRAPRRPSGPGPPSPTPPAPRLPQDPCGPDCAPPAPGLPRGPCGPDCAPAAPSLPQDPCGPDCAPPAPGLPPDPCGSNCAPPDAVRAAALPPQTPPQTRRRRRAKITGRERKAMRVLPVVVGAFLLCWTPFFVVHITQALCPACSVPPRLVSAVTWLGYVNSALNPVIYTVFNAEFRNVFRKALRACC
# Method in brief: as §1
# [3] = biological target: T3, cloned human or rodent CNS receptors, channels, and transporters (PDSP panel) (Homo sapiens, UniProt P25021); conditions: H2, primary assay
# T3 construct: expressed in transfected cells
# Method in brief: as §1
# [4] = biological target: T4, cloned human or rodent CNS receptors, channels, and transporters (PDSP panel) (Homo sapiens, UniProt P28223); conditions: 5-HT2A, primary assay
# T4 construct: expressed in transfected cells
# Method in brief: as §1
# [5] = biological target: T5, cloned human or rodent CNS receptors, channels, and transporters (PDSP panel) (Homo sapiens, UniProt P35462); conditions: D3, primary assay
# T5 construct: expressed in transfected cells
# Method in brief: as §1
# [6] = biological target: T6, cloned human or rodent CNS receptors, channels, and transporters (PDSP panel) (Homo sapiens, UniProt P41145); conditions: KOR, primary assay
# T6 construct: expressed in transfected cells
# Method in brief: as §1
# [7] = biological target: T7, cloned human or rodent CNS receptors, channels, and transporters (PDSP panel) (Homo sapiens, UniProt P46098); conditions: 5-HT3, primary assay
# T7 construct: expressed in transfected cells
# T7 sequence (P46098 24-478): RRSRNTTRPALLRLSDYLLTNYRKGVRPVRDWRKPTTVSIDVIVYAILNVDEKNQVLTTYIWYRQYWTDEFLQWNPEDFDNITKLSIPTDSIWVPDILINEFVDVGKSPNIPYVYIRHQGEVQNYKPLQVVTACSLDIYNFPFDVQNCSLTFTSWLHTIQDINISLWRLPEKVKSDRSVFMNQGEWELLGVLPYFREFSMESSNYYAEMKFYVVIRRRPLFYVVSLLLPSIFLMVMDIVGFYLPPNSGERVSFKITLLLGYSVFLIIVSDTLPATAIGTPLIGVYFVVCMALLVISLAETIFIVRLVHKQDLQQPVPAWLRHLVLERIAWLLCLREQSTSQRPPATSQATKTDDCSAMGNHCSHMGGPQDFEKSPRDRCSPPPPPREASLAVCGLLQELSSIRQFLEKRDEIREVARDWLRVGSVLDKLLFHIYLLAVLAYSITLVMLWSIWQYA
# Method in brief: as §1
# [8] = biological target: T8, cloned human or rodent CNS receptors, channels, and transporters (PDSP panel) (Rattus norvegicus, UniProt P16257); conditions: PBR, primary assay
# T8 construct: expressed in transfected cells
# Method in brief: as §1
# T3 sequence (P25021 whole entry): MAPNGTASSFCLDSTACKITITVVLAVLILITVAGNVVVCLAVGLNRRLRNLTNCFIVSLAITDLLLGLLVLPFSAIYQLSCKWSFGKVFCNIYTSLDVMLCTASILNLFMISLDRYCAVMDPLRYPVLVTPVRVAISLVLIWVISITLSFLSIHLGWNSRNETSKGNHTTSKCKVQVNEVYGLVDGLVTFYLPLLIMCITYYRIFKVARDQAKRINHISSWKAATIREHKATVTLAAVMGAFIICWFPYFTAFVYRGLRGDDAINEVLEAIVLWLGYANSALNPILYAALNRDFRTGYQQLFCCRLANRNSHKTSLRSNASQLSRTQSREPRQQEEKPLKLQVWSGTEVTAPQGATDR
# T6 sequence (P41145 whole entry): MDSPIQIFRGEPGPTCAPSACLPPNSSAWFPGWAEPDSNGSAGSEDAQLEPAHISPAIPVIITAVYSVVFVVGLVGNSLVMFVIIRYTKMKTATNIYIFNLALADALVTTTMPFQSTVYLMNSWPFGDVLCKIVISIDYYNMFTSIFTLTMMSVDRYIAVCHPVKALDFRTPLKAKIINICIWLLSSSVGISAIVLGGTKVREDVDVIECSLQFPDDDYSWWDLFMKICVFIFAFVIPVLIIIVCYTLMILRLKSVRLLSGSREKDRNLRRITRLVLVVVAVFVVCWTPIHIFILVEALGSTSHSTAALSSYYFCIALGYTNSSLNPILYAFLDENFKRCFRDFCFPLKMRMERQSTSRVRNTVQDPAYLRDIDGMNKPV
# T4 sequence (P28223 whole entry): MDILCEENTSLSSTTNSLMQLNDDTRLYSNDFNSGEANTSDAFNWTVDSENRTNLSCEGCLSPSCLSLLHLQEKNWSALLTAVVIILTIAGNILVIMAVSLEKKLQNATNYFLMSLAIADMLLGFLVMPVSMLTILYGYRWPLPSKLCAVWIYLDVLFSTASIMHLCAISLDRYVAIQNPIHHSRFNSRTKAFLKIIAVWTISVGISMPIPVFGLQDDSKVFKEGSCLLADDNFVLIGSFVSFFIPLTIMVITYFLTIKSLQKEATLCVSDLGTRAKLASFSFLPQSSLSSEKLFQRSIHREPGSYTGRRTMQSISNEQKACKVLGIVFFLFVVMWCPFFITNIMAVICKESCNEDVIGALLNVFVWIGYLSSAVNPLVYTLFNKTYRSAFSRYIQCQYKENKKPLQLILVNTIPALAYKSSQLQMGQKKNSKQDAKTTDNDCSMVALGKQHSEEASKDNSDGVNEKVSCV
# T5 sequence (P35462 whole entry): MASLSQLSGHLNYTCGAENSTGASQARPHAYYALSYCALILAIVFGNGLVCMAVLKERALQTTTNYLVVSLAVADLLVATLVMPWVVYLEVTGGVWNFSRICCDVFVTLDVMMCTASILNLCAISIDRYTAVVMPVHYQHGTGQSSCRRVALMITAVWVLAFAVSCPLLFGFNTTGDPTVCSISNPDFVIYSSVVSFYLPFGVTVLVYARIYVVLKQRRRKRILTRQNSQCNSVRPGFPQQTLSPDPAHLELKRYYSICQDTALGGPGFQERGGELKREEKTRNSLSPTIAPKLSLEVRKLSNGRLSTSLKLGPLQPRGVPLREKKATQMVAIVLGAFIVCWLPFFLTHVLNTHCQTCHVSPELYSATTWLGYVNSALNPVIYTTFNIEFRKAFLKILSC
compound,measurement,setting,value
"O=C(NC1CC1)C(=O)C(Cc1ccccc1)NC(=O)[C@H]1CCC(=O)N1Cc1ccccc1 (stereo partly drawn) [UNC10302676A, ABT-957 (Alicapistat)]",Mean %,[1]; mean inhibition,-5.83%
same,Inhibition 1,[1]; replicate 1,12.89%
same,Inhibition 2,[1]; replicate 2,-15.33%
same,Inhibition 3,[1]; replicate 3,-17.78%
same,Inhibition 4,[1]; replicate 4,-3.1%
same,Mean %,[2]; mean inhibition,0.58%
same,Inhibition 1,[2]; replicate 1,5.07%
same,Inhibition 2,[2]; replicate 2,-11.66%
same,Inhibition 3,[2]; replicate 3,8.7%
same,Inhibition 4,[2]; replicate 4,0.19%
same,Mean %,[3]; mean inhibition,2.47%
same,Inhibition 1,[3]; replicate 1,-6.09%
same,Inhibition 2,[3]; replicate 2,2.81%
same,Inhibition 3,[3]; replicate 3,-1.92%
same,Inhibition 4,[3]; replicate 4,15.07%
same,Mean %,[4]; mean inhibition,1.79%
same,Inhibition 1,[4]; replicate 1,6.22%
same,Inhibition 2,[4]; replicate 2,7.05%
same,Inhibition 3,[4]; replicate 3,5.57%
same,Inhibition 4,[4]; replicate 4,-11.7%
same,Mean %,[5]; mean inhibition,10.85%
same,Inhibition 1,[5]; replicate 1,10.26%
same,Inhibition 2,[5]; replicate 2,-6.41%
same,Inhibition 3,[5]; replicate 3,23.48%
same,Inhibition 4,[5]; replicate 4,16.06%
same,Mean %,[6]; mean inhibition,-23.29%
same,Inhibition 1,[6]; replicate 1,-17.69%
same,Inhibition 2,[6]; replicate 2,-22.73%
same,Inhibition 3,[6]; replicate 3,-22.5%
same,Inhibition 4,[6]; replicate 4,-30.23%
same,Mean %,[7]; mean inhibition,-3.28%
same,Inhibition 1,[7]; replicate 1,-2.95%
same,Inhibition 2,[7]; replicate 2,-3.65%
same,Inhibition 3,[7]; replicate 3,-8.86%
same,Inhibition 4,[7]; replicate 4,2.33%
same,Inhibition 1,[8]; replicate 1,2.97% and 17.9%
same,Inhibition 2,[8]; replicate 2,-4.68% and 2.11%
same,Inhibition 3,[8]; replicate 3,1.91% and 4.11%
same,Inhibition 4,[8]; replicate 4,-8.81% and 7.78%
